From patent US20070197452A1, “Treatment of amyloid-related diseases” (priority 2006, published 2007)
Entries after “also recorded” stand apart in the source; their conditions may differ.

How the values were obtained:
Aβ40 = target: T1, Aβ40 (Homo sapiens, UniProt P05067); test: Cerebral Aβ40 content of hemi-brain homogenates (commercial kit); format: in vivo, mouse; conditions: for brain Aβ40 levels: TgCRND8 mice with pre-existing disease, 28 days from 5 months of age
T1 construct: analyzed for Aβ40 and Aβ42 using commercially available kits; from tissue; host or cells: hemi-brain homogenates of TgCRND8 transgenic mice
Protocol: Plasma and Cerebral Aβ Content. Hemi-brain samples were homogenized in a buffered sucrose solution, followed by either 0.4% diethylamine/100 mM NaCl for soluble Aβ levels or cold formic acid for the isolation of total Aβ. After neutralization, the samples were diluted and analyzed for Aβ40 and Aβ42 using commercially available kits (BIOSOURCE International). Each hemisphere was analyzed in triplicate and the mean values±SEM reported. Western blot analyses were performed on all fractions using urea gels for Aβ species analyses. Aβ was detected using 6E10 (BIOSOURCE International) and Enhanced Chemiluminenscence (Amersham).
Plasma and cerebral Aβ content. Hemi-brain samples were homogenized in a buffered sucrose solution, followed by either a mixture of 0.4% diethylamine and 100 mM NaCl for soluble Aβ levels or cold formic acid for the isolation of total Aβ. After neutralization, samples were diluted and analyzed for Aβ40 and Aβ42 using commercially available kits (Biosource International). Each hemisphere was analyzed in triplicate and the mean±s.e.m. was reported. Western blot analyses were carried out on all fractions using urea gels for Aβ species analyses. Aβ was detected using 6E10 (Biosource International).

TgCRND8 mice [1] = test: Morris water maze spatial reference memory test; format: in vivo, mouse; conditions: for spatial learning performance compared with non-Tg littermates / spatial learning performance compared with untreated TgCRND8 littermates: 28 days of treatment from 5 months of age, tested at 6 months; for cognitive performance compared with non-Tg mice / cognitive performance compared with untreated TgCRND8 mice / cognitive performance compared with non-Tg littermates: prophylactic
Protocol: Behavioural tests: Morris Water Maze testing was performed as previously described. After non-spatial pre-training, mice underwent place discrimination training for 5 days with 4-trials per day, followed by a cued visible platform to rule out general motivational, learning deficits and motor problems, and a probe trial to evaluate memory. […] Open field test for motor activity was preformed as described previously. Duration of walking, pausing and grooming were analyzed as indices of spontaneous locomotor activity. Sensorimotor function was examined with an EconomexTM accelerating rotarod (Columbus Instruments, Columbus, Ohio), as described elsewhere. The rod was set to accelerate at a rate of 0.2 r.p.m./s, from an initial, constant speed of 5 r.p.m. Latency to fall was recorded in four daily trials, conducted at 30 min intervals. All mice were trained for seven days before testing. The test day performance score for each animal was obtained by summing its latency to fall over the four trials Behavioral tests. Morris water maze testing was carried out as previously described. After nonspatial pretraining, mice underwent place discrimination training for 5 d with four trials per day, followed by a cued visible platform trial and a probe trial. An open-field test for motor activity was carried out as described previously. Sensorimotor function was assessed with an Economex accelerating rotarod (Columbus Instruments) as previously described. Behavioural tests. Morris Water Maze testing was performed as previously described. After non-spatial pre-training, mice underwent place discrimination training for 5 days with 4-trials per day, followed by a cued visible platform to rule out general motivational, learning deficits and motor problems, and a probe trial to evaluate memory. The probe trial was conducted at 72 h after the last testing, and used an annulus-crossing index to assess spatial recall. The annulus-crossing index measures the number of passes over the original platform position relative to passes over the other three quadrants. […] Open field test for motor activity was performed as described previously

TgCRND8 mice [2] = test: Gliosis quantitation (GFAP astrocytes, CD68 microglia); format: in vivo, mouse; conditions: prophylactic treatment; for astrogliosis (percent brain area covered): 4 and 6 months of age; for microgliosis / microglial activation (percent brain area covered): 6 months of age
Protocol: (§1) Gliosis Quantitation. Five randomly selected, evenly spaced, sagittal sections were collected from paraformaldehyde-fixed and frozen hemispheres of treated and control mice. Sections were immunolabelled for astrocytes with anti-rat GFAβ IgG2a (Dako; diluted 1:50) and for microglia with anti-rat CD68 IgG2b (Dako; 1:50). Digital images were captured using a Coolsnap digital camera (Photometrics, Tuscon, Ariz.) mounted to a Zeiss, Axioscope 2 Plus microscope. Images were analysed using Openlab 3.08 imaging software (Improvision, Lexington Mass.). Quantification of gliosis. Five randomly selected, evenly spaced sagittal sections from paraformaldehyde-fixed and frozen hemispheres of treated and control mice were collected. Sections were immunolabeled for astrocytes with an antibody against rat GFAβ IgG2a (Dako; diluted 1:50) and for microglia with an antibody to rat CD68 IgG2b (Dako; 1:50). Digital images were captured using a Coolsnap digital camera (Photometrics) mounted to a Zeiss, Axioscope 2 Plus microscope. Images were analyzed using Openlab 3.08 imaging software (Improvision).

[3] = system: transgenic TauP301L mouse model of frontotemporal dementia; test: Astrogliosis in transgenic TauP301L mice; format: in vivo; conditions: transgenic Tau (P301L) mice
Protocol: as §1

[4] = system: transgenic TauP301L mouse model; test: Synaptophysin quantification in TgTauP301L mice; format: in vivo; conditions: TgTauP301L mice after treatment
Protocol: Synaptophysin immunohistochemical staining was performed on 3 evenly spaced saggital sections of paraformaldehyde-fixed treated and control mice. Sections were immunolabelled for synaptophysin with anti-synaptophysin IgG (1:40; Roche, Laval, PQ). Digital images were captured and analyzed as described above. Within each section, three randomly chosen 100 μm2 areas of the CA1 region of the hippocampus were counted for synaptophysin reactive cell bodies and boutons. The results are expressed as the mean of the number of reactive bodies and boutons per 100 μm2 [33, 34].
Synaptophysin quantification. Immunohistochemical staining was carried out for synaptophysin on three evenly spaced sagittal sections of paraformaldehyde-fixed treated and control mice. Sections were immunolabeled for synaptophysin with synaptophysin-specific IgG (1:40; Roche). Digital images were captured and analyzed as described above. Within each section, three randomly chosen 100 μm2 areas of the CA1 region of the hippocampus were counted for synaptophysin-reactive cell bodies and boutons. The results are expressed as the mean of the number of reactive bodies and boutons per 100 μm2 [33, 34].

TgCRND8 mice [5] = test: Morris water maze spatial reference memory test; format: in vivo, mouse; conditions: separate cohort; 28 days of treatment from 5 months of age; data not shown
[6] = listed as scyllocyclohexanehexol
[7] = listed as Scyllo-cyclohexanehexol

T1 sequence (P05067 672-711 limits assumed): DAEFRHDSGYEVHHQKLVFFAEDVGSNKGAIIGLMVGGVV

OC1C(O)C(O)C(O)C(O)C1O (stereo not drawn) [epi-cyclohexanehexol, 1,2,3,4,5/6-(epi-) cyclohexanehexol, reference compound]
brain Aβ40 levels (Aβ40): no significant impact; also recorded: no significant effect | reduction of brain Aβ40 (range given for both Aβ40 and Aβ42) (Aβ40; TgCRND8 mice, prophylactic treatment, 4 months of age): 22-62 % reduction | spatial learning performance compared with non-Tg littermates (TgCRND8 mice [1]): significantly poorer than the performance of their non-Tg littermates; also recorded: remained impaired with respect to non-Tg littermates; also recorded: remained impaired with respect to nontransgenic littermates | spatial learning performance compared with untreated TgCRND8 littermates (TgCRND8 mice [1]): not significantly different from that of untreated TgCRND8 littermates; also recorded: ineffective at reversing behavioral deficits | spatial learning performance compared with non-Tg littermates (TgCRND8 mice [1]; listed as AZD-102): remained impaired with respect to non-Tg littermates | spatial learning performance compared with untreated TgCRND8 littermates (TgCRND8 mice [1]; listed as AZD-102): not different from untreated TgCRND8 littermates | cognitive performance compared with non-Tg mice (TgCRND8 mice [1]; 6 weeks to 4 months of age): significantly different from treated and untreated nontransgenic mice | cognitive performance compared with untreated TgCRND8 mice (TgCRND8 mice [1]; 6 weeks to 4 months of age): significant behavioral improvement | cognitive performance compared with non-Tg mice (TgCRND8 mice [1]; 6 weeks to 4 months of age, listed as AZD-102): significantly different from treated and untreated non-Tg mice | cognitive performance compared with non-Tg littermates (TgCRND8 mice [1]; 6 weeks to 6 months of age): indistinguishable from nontransgenic littermates; also recorded: approached that of nontransgenic littermates | cognitive performance compared with untreated TgCRND8 mice (TgCRND8 mice [1]; 6 weeks to 6 months of age): significantly better cognitive function compared to untreated TgCRND8 littermates | cognitive performance compared with non-Tg littermates (TgCRND8 mice [1]; 6 weeks to 6 months of age, listed as AZD-102): approached that of non-Tg littermates | astrogliosis (percent brain area covered) (TgCRND8 mice [2]): decreased the percent brain area covered in astrogliosis | astrogliosis (percent brain area covered) (TgCRND8 mice [2]; listed as AZD-102): decreased the percent brain area covered in astrogliosis; also recorded: decrease in astrogliosis | astrogliosis (percent brain area covered) (TgCRND8 mice [2]; listed as Epi-cyclohexanehexol): decreased the astrogliotic response; also recorded: decrease in astrogliosis | microgliosis / microglial activation (percent brain area covered) (TgCRND8 mice [2]): decreased the percent brain area covered with microgliosis | microgliosis / microglial activation (percent brain area covered) (TgCRND8 mice [2]; listed as AZD-102): decreased the percent brain area covered with microgliosis | microgliosis / microglial activation (percent brain area covered) (TgCRND8 mice [2]; listed as Epi-cyclohexanehexol): no effect on microglial activation

OC1C(O)C(O)C(O)C(O)C1O (centres unmarked) [scyllo-cyclohexanehexol, 1,3,5/2,4,6-(scyllo-) cyclohexanehexol]
brain Aβ40 levels (Aβ40): reduced levels | spatial learning performance compared with non-Tg littermates (TgCRND8 mice [1]): indistinguishable from that of their non-Tg littermates; also recorded: indistinguishable from nontransgenic littermates | spatial learning performance compared with untreated TgCRND8 littermates (TgCRND8 mice [1]): significantly better behavioural performance compared to untreated TgCRND8 mice; also recorded: significantly better than untreated TgCRND8 littermates | spatial learning performance compared with non-Tg littermates (TgCRND8 mice [1]; listed as AZD-103): indistinguishable from non-Tg littermates | spatial learning performance compared with untreated TgCRND8 littermates (TgCRND8 mice [1]; listed as AZD-103): significantly better than untreated TgCRND8 littermates | spatial learning performance compared with non-Tg littermates (TgCRND8 mice [1]; [6]): indistinguishable from nontransgenic littermates | spatial learning performance compared with untreated TgCRND8 littermates (TgCRND8 mice [1]; [6]): improved behavioral performance | effect on cognition (TgCRND8 mice [1]; TgCRND8 mice treated for 2 months, ending at 7 months of age): Sustained effects | spatial memory, dose-response (TgCRND8 mice [1]; TgCRND8 mice, 0.3-30 mg/kg/d orally, tested at 4 months of age): dose-dependent improvement | cognitive performance compared with non-Tg mice (TgCRND8 mice [1]; 6 weeks to 4 months of age): approached that of nontransgenic mice | cognitive performance compared with untreated TgCRND8 mice (TgCRND8 mice [1]; 6 weeks to 4 months of age): significant behavioral improvement | cognitive performance compared with non-Tg mice (TgCRND8 mice [1]; 6 weeks to 4 months of age, listed as AZD-103): approached that of non-Tg mice | cognitive performance compared with non-Tg mice (TgCRND8 mice [1]; 6 weeks to 4 months of age, listed as Scyllo-cyclohexanehexol): indistinguishable from nontransgenic littermates on days 4 and 5 of testing | cognitive performance compared with non-Tg littermates (TgCRND8 mice [1]; 6 weeks to 6 months of age): indistinguishable from nontransgenic littermates; also recorded: approached that of nontransgenic littermates | cognitive performance compared with untreated TgCRND8 mice (TgCRND8 mice [1]; 6 weeks to 6 months of age): significantly better cognitive function compared to untreated TgCRND8 littermates | astrogliosis (percent brain area covered) (TgCRND8 mice [2]): decreased astrogliosis much more efficiently | astrogliosis (percent brain area covered) (TgCRND8 mice [2]; listed as AZD-103): decreased the astrogliotic response to a greater extent; also recorded: significantly decreased | astrogliosis (percent brain area covered) (TgCRND8 mice [2]; [7]): decreased the astrogliotic response to a greater extent than epi-cyclohexanehexol; also recorded: significantly decreased | microgliosis / microglial activation (percent brain area covered) (TgCRND8 mice [2]): attenuated microglial activation; also recorded: decreased the percent brain area covered with microgliosis | microgliosis / microglial activation (percent brain area covered) (TgCRND8 mice [2]; listed as AZD-103): decreased the percent brain area covered with microgliosis | astrogliosis [3]: did not prevent the astrogliosis | astrogliosis [3, 7]: no effect | synaptophysin reactivity / synaptic loss [4]: unchanged | synaptophysin reactivity / synaptic loss ([4]; listed as AZD-103): unchanged | synaptophysin reactivity / synaptic loss [4, 6]: no effect on synaptic loss | probe trial, % time in target quadrant, compared with non-Tg littermates (TgCRND8 mice [5]): not statistically different from non-Tg littermates
